Experimental findings from ChEMBL document CHEMBL3600327, “Synthesis of a novel series of fluoroarene derivatives of artemisinin as potent antifungal and anticancer agent” (Bioorg Med Chem Lett, 2015) are described below.

In assay [1] the test system is Fusarium oxysporum. Description: Antifungal activity against Fusarium oxysporum assessed as inhibition of mycelia growth at 200 ppm after 1 week by filter paper method relative to control. The format is functional. The note with it: 168 h, read-out: GI.
Assay [2] concerns Fusarium oxysporum. Description: Antifungal activity against Fusarium oxysporum assessed as inhibition of mycelia growth at 400 ppm after 1 week by filter paper method relative to control. Conditions: 168 h, read-out: GI. It counts as functional.
For assay [3], the system named is Fusarium oxysporum. Description: Antifungal activity against Fusarium oxysporum assessed as inhibition of mycelia growth at 600 ppm after 1 week by filter paper method relative to control. The format is functional. Conditions: 168 h, read-out: GI.
For assay [4], the system named is Fusarium oxysporum. Description: Antifungal activity against Fusarium oxysporum assessed as inhibition of mycelia growth at 800 ppm after 1 week by filter paper method relative to control. It counts as functional. The note with it: 168 h, read-out: GI.
Assay [5] relates to Fusarium oxysporum. As to the kind of experiment: Antifungal activity against Fusarium oxysporum assessed as inhibition of mycelia growth at 1000 ppm after 1 week by filter paper method relative to control. Conditions: 168 h, read-out: GI. The format is functional.
In a further assay the test system is HeLa. As to the kind of experiment: Cytotoxicity against human HeLa cells measured at 48 hrs by MTT assay. It counts as functional, cell-based. (Formazan colour is commonly taken as a measure of viable cells.)

`C#CCO[C@H]1O[C@@H]2O[C@@]3(C)CC[C@H]4[C@H](C)CC[C@@H]([C@H]1C)[C@@]24OO3`: the inhibition of growth at 200 ppm with Fusarium oxysporum [1] was 64.8%. In addition, the inhibition of growth at 400 ppm with Fusarium oxysporum [2] came to 66.4%. Further, the inhibition of growth at 600 ppm in the assay with Fusarium oxysporum [3] was 68.8%. In addition, the inhibition of growth at 800 ppm with Fusarium oxysporum [4] is 70.2%. Moreover, the inhibition of growth at 1000 ppm with Fusarium oxysporum [5] turned out to be 72%.

For `C#CCCO[C@H]1O[C@@H]2O[C@@]3(C)CC[C@H]4[C@H](C)CC[C@@H]([C@H]1C)[C@@]24OO3`, in the assay with Fusarium oxysporum [1], the inhibition of growth at 200 ppm amounted to 70%. Further, the inhibition of growth at 400 ppm with Fusarium oxysporum [2] came out at 73.2%. Moreover, the inhibition of growth at 600 ppm in the assay on Fusarium oxysporum [3] is 75.4%. Further, in the assay with Fusarium oxysporum [4], the inhibition of growth at 800 ppm worked out at 76.8%. Besides, the inhibition of growth at 1000 ppm in the assay with Fusarium oxysporum [5] was determined as 77.6%.

A word on the IC50: it is the midpoint of a concentration-inhibition curve. The low end stands for greater potency, the high end for weaker potency. `C[C@H]1[C@@H](OCCC#Cc2ccc(-c3ccc(F)cc3)cc2)O[C@@H]2O[C@@]3(C)CC[C@H]4[C@H](C)CC[C@@H]1[C@@]24OO3`: the inhibition of growth at 200 ppm in the assay on Fusarium oxysporum [1] was 67%. In addition, the inhibition of growth at 400 ppm with Fusarium oxysporum [2] turned out to be 67.9%. Moreover, the inhibition of growth at 600 ppm in the assay with Fusarium oxysporum [3] is 70.2%. The inhibition of growth at 800 ppm in the assay on Fusarium oxysporum [4] came to 71%. Moreover, the inhibition of growth at 1000 ppm with Fusarium oxysporum [5] came to 72.8%. In the assay on HeLa, this compound showed an IC50 of 13.1 µM.

Consider `C[C@H]1[C@@H](OCCC#Cc2ccc(-c3cccc(C(F)(F)F)c3)cc2)O[C@@H]2O[C@@]3(C)CC[C@H]4[C@H](C)CC[C@@H]1[C@@]24OO3`, for which the inhibition of growth at 200 ppm with Fusarium oxysporum [1] is 65.6%. Also, in the assay on Fusarium oxysporum [2], the inhibition of growth at 400 ppm turned out to be 66.5%. In addition, in the assay on Fusarium oxysporum [3], the inhibition of growth at 600 ppm is 67.6%. For the same compound, the inhibition of growth at 800 ppm in the assay on Fusarium oxysporum [4] came out at 69%. In addition, in the assay on Fusarium oxysporum [5], the inhibition of growth at 1000 ppm amounted to 70.2%.

With `C[C@H]1[C@@H](OCCC#Cc2ccc(-c3ccc(F)cc3)s2)O[C@@H]2O[C@@]3(C)CC[C@H]4[C@H](C)CC[C@@H]1[C@@]24OO3`, the inhibition of growth at 200 ppm in the assay with Fusarium oxysporum [1] is 66.4%. Further, the inhibition of growth at 400 ppm in the assay on Fusarium oxysporum [2] was 66.9%. The inhibition of growth at 600 ppm in the assay with Fusarium oxysporum [3] was 68%. Further, the inhibition of growth at 800 ppm in the assay with Fusarium oxysporum [4] worked out at 69.9%. The inhibition of growth at 1000 ppm in the assay with Fusarium oxysporum [5] was 71%. The compound also had an IC50 with HeLa of 36.6 µM.

In the case of `C[C@H]1[C@@H](OCCC#Cc2cccc(-c3ccc(F)cc3)c2)O[C@@H]2O[C@@]3(C)CC[C@H]4[C@H](C)CC[C@@H]1[C@@]24OO3`, the inhibition of growth at 200 ppm with Fusarium oxysporum [1] stood at 64%. Also, in the assay with Fusarium oxysporum [2], the inhibition of growth at 400 ppm turned out to be 65.2%. In addition, the inhibition of growth at 600 ppm in the assay with Fusarium oxysporum [3] was found to be 66.4%. In addition, in the assay on Fusarium oxysporum [4], the inhibition of growth at 800 ppm was found to be 68%. For the same compound, the inhibition of growth at 1000 ppm in the assay on Fusarium oxysporum [5] was 69.8%. The compound also showed an IC50 with HeLa of 112 µM.

As to `C[C@H]1[C@@H](OCC#Cc2ccc(F)cc2)O[C@@H]2O[C@@]3(C)CC[C@H]4[C@H](C)CC[C@@H]1[C@@]24OO3`, the inhibition of growth at 200 ppm in the assay with Fusarium oxysporum [1] was 53.5%. The inhibition of growth at 400 ppm in the assay with Fusarium oxysporum [2] came to 54.4%. The inhibition of growth at 600 ppm with Fusarium oxysporum [3] came to 56%. Moreover, the inhibition of growth at 800 ppm with Fusarium oxysporum [4] worked out at 57.6%. Besides, in the assay on Fusarium oxysporum [5], the inhibition of growth at 1000 ppm came out at 59%. Further, in the assay with HeLa, inhibition was half-maximal at 26.3 µM (IC50).

In the case of `C[C@H]1[C@@H](OCC#Cc2cccc(F)c2)O[C@@H]2O[C@@]3(C)CC[C@H]4[C@H](C)CC[C@@H]1[C@@]24OO3`, in the assay with Fusarium oxysporum [1], the inhibition of growth at 200 ppm is 60%. Further, the inhibition of growth at 400 ppm in the assay with Fusarium oxysporum [2] amounted to 61.8%. Besides, the inhibition of growth at 600 ppm with Fusarium oxysporum [3] stood at 62%. The inhibition of growth at 800 ppm with Fusarium oxysporum [4] was 64%. For the same compound, in the assay with Fusarium oxysporum [5], the inhibition of growth at 1000 ppm was found to be 65.2%. For the same compound, the IC50 in the assay on HeLa was determined as 14 µM.

On to `C[C@H]1[C@@H](OCC#Cc2ccccc2F)O[C@@H]2O[C@@]3(C)CC[C@H]4[C@H](C)CC[C@@H]1[C@@]24OO3`, for which the inhibition of growth at 200 ppm in the assay on Fusarium oxysporum [1] turned out to be 53.6%. Also, in the assay with Fusarium oxysporum [2], the inhibition of growth at 400 ppm amounted to 54.2%. Besides, the inhibition of growth at 600 ppm with Fusarium oxysporum [3] was found to be 55.2%. For the same compound, the inhibition of growth at 800 ppm with Fusarium oxysporum [4] worked out at 56.8%. For the same compound, the inhibition of growth at 1000 ppm in the assay with Fusarium oxysporum [5] came out at 57.6%. In addition, half-maximal inhibition in the assay on HeLa (IC50) required 139 µM.

Consider `C[C@H]1[C@@H](OCCC#Cc2ccc(F)nc2)O[C@@H]2O[C@@]3(C)CC[C@H]4[C@H](C)CC[C@@H]1[C@@]24OO3`, for which the inhibition of growth at 200 ppm in the assay with Fusarium oxysporum [1] amounted to 62.4%. Besides, the inhibition of growth at 400 ppm in the assay on Fusarium oxysporum [2] turned out to be 63.9%. For the same compound, in the assay on Fusarium oxysporum [3], the inhibition of growth at 600 ppm was 65%. Besides, in the assay on Fusarium oxysporum [4], the inhibition of growth at 800 ppm amounted to 66.4%. Further, in the assay on Fusarium oxysporum [5], the inhibition of growth at 1000 ppm is 67.8%. Further, inhibition in the assay with HeLa was half-maximal at 20.9 µM (IC50).

`C[C@H]1[C@@H](OCC#Cc2ccc(F)nc2)O[C@@H]2O[C@@]3(C)CC[C@H]4[C@H](C)CC[C@@H]1[C@@]24OO3`: the inhibition of growth at 200 ppm in the assay on Fusarium oxysporum [1] was determined as 56.4%. Further, in the assay on Fusarium oxysporum [2], the inhibition of growth at 400 ppm was determined as 58.4%. Besides, in the assay with Fusarium oxysporum [3], the inhibition of growth at 600 ppm was determined as 61%. Further, the inhibition of growth at 800 ppm with Fusarium oxysporum [4] came out at 62.5%. Besides, the inhibition of growth at 1000 ppm in the assay on Fusarium oxysporum [5] came to 63.8%.

With `C[C@@H]1CC[C@H]2[C@@H](C)C(=O)O[C@@H]3O[C@@]4(C)CC[C@@H]1[C@]32OO4` [ARTEMISININ], in the assay with Fusarium oxysporum [1], the inhibition of growth at 200 ppm was 72%. Also, the inhibition of growth at 400 ppm with Fusarium oxysporum [2] was found to be 75.5%. Moreover, in the assay with Fusarium oxysporum [3], the inhibition of growth at 600 ppm came out at 76%. For the same compound, the inhibition of growth at 800 ppm in the assay on Fusarium oxysporum [4] turned out to be 77.2%. In addition, the inhibition of growth at 1000 ppm with Fusarium oxysporum [5] came to 78.5%. The compound also showed an IC50 with HeLa of 493 µM.
